Results reported in patent US20090143285A1, “TARGET PROTEIN AND TARGET GENE FOR DRUG DISCOVERY AND SCREENING METHOD” (REVERSE PROTEOMICS RESEARCH INSTITUTE CO., LTD., priority 2005, published 2009).
Substitutions are numbered along the chain they refer to. Entries after “also recorded” stand apart in the source; their conditions may differ.

How the values were obtained:
FLJ41991-derived protein = target: T1, FLJ41991-derived protein (Homo sapiens, UniProt P57764, E293G); experiment: SEC/MS interaction analysis, FLJ41991-derived protein (GSDMDC1); assay type: binding; settings: for interaction judged from spectrum intensity of the compound in the SEC spin column filtrate (protein fraction eluted from SEC): spin column method, doses of both compound and protein varied
T1 construct: His-tag (N); made in house; host or cells: Escherichia coli BL21star(DE3)pLysS (pDEST17)
T1 sequence (P57764 265-484 E293G): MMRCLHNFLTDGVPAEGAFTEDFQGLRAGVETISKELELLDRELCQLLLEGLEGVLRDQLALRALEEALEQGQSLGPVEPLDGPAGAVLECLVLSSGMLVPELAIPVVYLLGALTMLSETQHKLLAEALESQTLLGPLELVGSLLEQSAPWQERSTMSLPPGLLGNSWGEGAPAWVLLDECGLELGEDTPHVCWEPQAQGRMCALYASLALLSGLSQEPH
Source text: (§1) To analyze the interactions between commonly used drugs and proteins expressed from human full-length cDNA clones while keeping both the proteins and the compounds in non-modified, non-immobilized state, size exclusion chromatography (SEC) and mass analysis were used in combination. The specific procedures are shown below.
(§2) The compound-protein mixture prepared in step 1 was subjected to chromatography using an SEC column, the compound and the protein were separated by SEC, and the compound that interacted with the bound compound or protein contained in the protein fraction was analyzed using a mass analyzer.
(§3) Protein concentrations were measured using BCA Protein Assay (PIERCE), in consideration of the purity calculated by SDS-PAGE.
(§4) Mass analysis was performed using LCQ DECA XP (Thermoelectron) or Q-TOF micro (Micromass), equipped with an ESI probe. The LC pump used was Agilent 1100 (Yokogawa Analytical Systems), and the autosampler used was HTC-PAL (CTC Analytics) equipped with a cooling stacker. The SEC column used was a micro-LC column or a 384-well spin column. […]
(§5) In the 384-well spin column method, Unifilter 100 (Whatman), packed with 10 μL (dry volume) of Bio-Gel P6 (BIO-RAD) and swollen with milliQ water, was used as the SEC column. […] The SEC spin column was mounted on an acetonitrile-aliquoted 384-well U-bottom plate and centrifuged; the SEC spin column filtrate, which is a protein fraction, was recovered in 50% acetonitrile. The protein precipitate produced by the acetonitrile was removed via centrifugation and filtration for deproteinization; the resulting filtrate was concentrated by centrifugal concentration and re-dissolved in 10 μL of 50% methanol to obtain a mass analysis sample. The mobile phase supplied to the mass analyzer was 0.1% formic acid/50% methanol solution in the positive ion mode, and 0.1% ammonia/50% methanol solution in the negative ion mode; these mobile phases were used at a flow rate of 40 μL/min. 2-μL of mass analysis samples were injected using an autosampler at 2-minute intervals; the mass spectral intensity of the compound was measured to retrieve the spectral intensity of the pharmaceutical compound contained in the SEC spin column filtrate (protein fraction eluted from SEC).

[1] = test system: FLJXXXXX-derived proteins; experiment: SEC/MS spin column interaction analysis of FLJXXXXX-derived proteins and various compounds (Tables 30-1 to 30-4); assay type: binding, human; settings: SEC spin column filtrate, spectral intensity increased with doses of compound and protein
FLJ38897-derived protein = target: T2, FLJ38897-derived protein (Homo sapiens, UniProt P57764); experiment: SEC/MS interaction analysis, FLJ38897-derived protein (GSDMDC1); assay type: binding; settings: spin column method; mixture with protein vs buffer solution alone; data not shown
T2 construct: His-tag (N); made in house; host or cells: Escherichia coli BL21star(DE3)pLysS
T2 sequence (P57764 265-484): T1 sequence (P57764 265-484 E293G) with G29E
Source text: as §1, §2, §3, §4, §5

[2] = compound 12.5 μM, protein 10 μM
[3] = compound 12.5 μM, protein 25 μM
[4] = compound 62.5 μM, protein 10 μM
[5] = compound 62.5 μM, protein 25 μM

| SMILES | spectrum intensity of the compound in the SEC spin column filtrate (FLJ41991-derived protein; compound 12.5 μM, protein 0 μM) | spectrum intensity of the compound in the SEC spin column filtrate (FLJ41991-derived protein; compound 12.5 μM, protein 5 μM) | spectrum intensity of the compound in the SEC spin column filtrate (FLJ41991-derived protein; [2]) | spectrum intensity of the compound in the SEC spin column filtrate (FLJ41991-derived protein; [3]) | spectrum intensity of the compound in the SEC spin column filtrate (FLJ41991-derived protein; compound 25 μM, protein 0 μM) | spectrum intensity of the compound in the SEC spin column filtrate (FLJ41991-derived protein; compound 25 μM, protein 5 μM) | spectrum intensity of the compound in the SEC spin column filtrate (FLJ41991-derived protein; compound 25 μM, protein 10 μM) | spectrum intensity of the compound in the SEC spin column filtrate (FLJ41991-derived protein; compound 25 μM, protein 25 μM) | spectrum intensity of the compound in the SEC spin column filtrate (FLJ41991-derived protein; compound 62.5 μM, protein 0 μM) | spectrum intensity of the compound in the SEC spin column filtrate (FLJ41991-derived protein; compound 62.5 μM, protein 5 μM) | spectrum intensity of the compound in the SEC spin column filtrate (FLJ41991-derived protein; [4]) | spectrum intensity of the compound in the SEC spin column filtrate (FLJ41991-derived protein; [5]) | interaction judged from spectrum intensity of the compound in the SEC spin column filtrate (protein fraction eluted from SEC) (FLJ41991-derived protein) | FLJ No of the derived protein with which the compound was judged to exhibit a concentration-dependent interaction [1] | interaction judged from mass spectrum peak intensity of the compound in the spin column filtrate (FLJ38897-derived protein) |
| --- | --- | --- | --- | --- | --- | --- | --- | --- | --- | --- | --- | --- | --- | --- | --- |
| CN1[C@@H]2CC[C@H]1C[C@@H](OC(c1ccccc1)c1ccccc1)C2 [benztropine] | 143943 | 220928 | 285013 | 489071 | 152947 | 491863 | 560686 | 1352077 | 911727 | 1861766 | 2757526 | 3061987 | concentration-dependent interaction | FLJ38897; also recorded: FLJ41991 | there was an interaction |
| CN(C)CC/C=C1/c2ccccc2Sc2ccc(Cl)cc21 [chlorprothixene] | 178622 | 175333 | 226245 | 393132 | 161141 | 149738 | 277798 | 490640 | 156021 | 210998 | 626223 | 2564975 | concentration-dependent interaction | FLJ38897; also recorded: FLJ41991 | there was an interaction |
| OCCN1CCN(CCCN2c3ccccc3Sc3ccc(C(F)(F)F)cc32)CC1 [fluphenazine] | 87861 | 162795 | 434899 | 1101486 | 193639 | 276524 | 843648 | 1778376 | 200313 | 1055670 | 3173659 | 6405132 | concentration-dependent interaction | FLJ38897; also recorded: FLJ41991 | there was an interaction |
